# Laboratory results: patent publication US20080260695A1, “Composition for prevention and/or treatment of cancer” (MICROBIO COMPANY LTD., priority 2007, published 2008)
# Tested on: colorectal cancer cell (HT-29)
# Test: MTT assay, relative survival rate of colorectal cancer cell line
# Format: cell-based
# Details: HT-29, 24 hours, control 100%
# Method: The six components (fermented soy extract (Microbio Biotechnology®), oligomeric proanthocyanidin, epigallocatiechin gallate, spirulina, curcumin, and Antrodia camphorata) of Example 1 were classified to seven groups; the content of each group is listed in Table 2. Each group was respectively diluted 300×, 600×, 1200×, and 2400× with McCoy's 5a medium, and then colorectal cancer cell (HT-29, 80000 cell/well) line was treated with the diluted group A to group G. After 24 hours, the relative survival rates of the colorectal cancer cell line were detected by MTT assay. In a control group, the relative survival rate was 100%.
# [1] = 300 × dilution in McCoy's 5a medium
# [2] = 600 × dilution in McCoy's 5a medium
# [3] = 1200 × dilution in McCoy's 5a medium
# [4] = 2400 × dilution in McCoy's 5a medium
Compound,Relatively survival rate (%) [1] [%],Relatively survival rate (%) [2] [%],Relatively survival rate (%) [3] [%],Relatively survival rate (%) [4] [%]
"COc1cc(/C=C/C(=O)CC(=O)/C=C/c2ccc(O)c(OC)c2)ccc1O [Group C, curcumin]",18,31,45,71
epigallocatiechin gallate [Group B],23,50,66,81
